Converted amounts (≈) assume the structure as drawn. Where two headings read alike, the source gives them in different places.
How the values were obtained:
Assay type in all cases: cell-based
SKMEL-2 (human melanoma) = experiment: SRB assay, in vitro antitumor effect against SKMEL-2; details: SK-MEL-2, 48 hours; for IC50: Homo sapiens, read-out: ED50 (the source's name)
Experimental: (§1) In vitro antitumor effect against human tumor cell lines.
(§2) b. 5×10^3 ~2×10^4 cells were added into each well of 96-well plate and cultured in 5% CO2 incubator, at 37° C., for 24 hours.
(§3) c. Each sample drug was dissolved in a little DMSO and diluted with the used medium to a prescribed concentration for experiments, wherein the final concentration of DMSO was controlled below 0.5%.
(§4) d. Medium of each well cultured for 24 hours as above b. was removed by aspiration. Each 200 μl of drug samples prepared in c. was added into each well and the wells were cultured for 48 hours. Tz(time zero) plates were collected at the point of time drugs were added.
(§5) e. According to the SRB assay method, cell fixing with TCA, staining with 0.4% SRB solution, washing with 1% acetic acid and elution of dye with 10 mM Tris solution were carried out on Tz plates and culture-ended plates, and then, OD values were measured at 520 nm.
(§6) a. Time zero(Tz) value was determined with measuring the SRB protein value at the point of time drugs were added.
(§7) b. Control value(C) was determined with the OD value of an well untreated with drug.
(§8) c. Drug-treated test value(T) was determined with the OD value of drug-treated well.
(§9) d. Effects of drugs were estimated with growth stimulation, net growth inhibition, net killing etc. calculated from Tz, C and T.
(§10) e. If T≥Tz, cellular response function was calculated by 100×(T-Tz)/(C-Tz), and if T<Tz, by 100×(T-Tz)/Tz.

HCT-15 (human colon) = experiment: SRB assay, in vitro antitumor effect against HCT-15; details: HCT 15, 48 hours; for IC50: Homo sapiens, read-out: ED50 (the source's name)
Experimental: as §1, §2, §3, §4, §5, §6, §7, §8, §9, §10

[1] = system: A549 (human non-small lung cell); experiment: SRB assay, in vitro antitumor effect against A549; details: A549, 48 hours; for IC50: Homo sapiens, read-out: ED50 (the source's name)
Experimental: as §1, §2, §3, §4, §5, §6, §7, §8, §9, §10

SKOV-3 (human ovarian) = experiment: SRB assay, in vitro antitumor effect against SKOV-3; details: SK-OV-3, 48 hours; for IC50: Homo sapiens, read-out: ED50 (the source's name)
Experimental: as §1, §2, §3, §4, §5, §6, §7, §8, §9, §10

XF 498 (human CNS) = experiment: SRB assay, in vitro antitumor effect against XF 498; details: for IC50: Homo sapiens
Experimental: as §1, §2, §3, §4, §5, §6, §7, §8, §9, §10

[2] = XF498, XF-498, 48 hours, read-out: ED50 (the source's name)

Work on `CCN(C(=O)N1CCN(c2cc(OC)cc(OC)c2)CC1)c1cc2ccccc2nc1OC` [Example 99, 1-[N-Ethyl-N-(2-methoxyquinolin-3-yl)aminocarbonyl]-4-(3,5-dimethoxyphenyl)piperazine] yielded an IC50 (SKMEL-2 (human melanoma)) of 400 ng/mL (≈ 888 nM), an IC50 (HCT-15 (human colon)) of 360 ng/mL (≈ 799 nM) and an IC50 [1] of 430 ng/mL (≈ 954 nM). It also gave an IC50 (SKOV-3 (human ovarian)) of 410 ng/mL (≈ 910 nM) and an IC50 (XF 498 (human CNS); [2]) of 520 ng/mL (≈ 1150 nM).

`CCCc1nc(OC)c(NC(=O)N2CCN(c3cccc(O)c3)CC2)cc1C` [Example 17, 1-[(2-Methoxy-5-methyl-6-propylpyridin-3-yl)aminocarbonyl]-4-(3-hydroxyphenyl)piperazine] showed an IC50 (SKMEL-2 (human melanoma)) of 21 ng/mL (≈ 54.6 nM), an IC50 (HCT-15 (human colon)) of 8 ng/mL (≈ 20.8 nM) and an IC50 [1] of 18 ng/mL (≈ 46.8 nM). For the same compound, the IC50 (SKOV-3 (human ovarian)) was 10 ng/mL (≈ 26 nM) and the IC50 (XF 498 (human CNS); XF498, 48 h, read-out: ED50) was 77 ng/mL (≈ 200 nM).

`C=Cc1cc(NC(=O)N2CCN(c3cc(F)cc(F)c3)CC2)c(OC)nc1C` [Example 75, 1-[(2-Methoxy-6-methyl-5-vinylpyridin-3-yl)aminocarbonyl]-4-(3,5-difluorophenyl)piperazine] was tested, and the IC50 (SKMEL-2 (human melanoma)) was 90 ng/mL (≈ 232 nM), the IC50 (HCT-15 (human colon)) was 120 ng/mL (≈ 309 nM) and the IC50 [1] was 190 ng/mL (≈ 489 nM). For the same compound, the IC50 (SKOV-3 (human ovarian)) was 90 ng/mL (≈ 232 nM) and the IC50 (XF 498 (human CNS); [2]) was 130 ng/mL (≈ 335 nM).

For `COc1cc(C)c(C)cc1N(C)C(=O)N1CCN(c2cc(C)cc(C)c2)CC1` [Example 191, 1-[N-(4,5-Dimethyl-2-methoxyphenyl)-N-methylaminocarbonyl]-4-(3,5-dimethylphenyl)piperazine], the IC50 (SKMEL-2 (human melanoma)) was 60 ng/mL (≈ 157 nM), the IC50 (HCT-15 (human colon)) was 400 ng/mL (≈ 1050 nM) and the IC50 [1] was 90 ng/mL (≈ 236 nM). For the same compound, the IC50 (SKOV-3 (human ovarian)) was 280 ng/mL (≈ 734 nM) and the IC50 (XF 498 (human CNS); [2]) was 470 ng/mL (≈ 1230 nM).

In the case of `COc1cc(OC)cc(N2CCN(C(=O)N(C)c3cc(C(C)OC)c(C)nc3OC)CC2)c1` (stereo not drawn) [Example 157, 1-{N-[2-Methoxy-5-(1-methoxyethyl)-6-methylpyridin-3-yl]-N-methylaminocarbonyl}-4-(3,5-dimethoxyphenyl)piperazine], the IC50 (SKMEL-2 (human melanoma)) is reported as 0.043 ng/mL (≈ 0.0938 nM), the IC50 (HCT-15 (human colon)) is reported as 0.211 ng/mL (≈ 0.46 nM) and the IC50 [1] is reported as 0.002 ng/mL (≈ 0.00436 nM). It also gave an IC50 (SKOV-3 (human ovarian)) of 0.002 ng/mL (≈ 0.00436 nM) and an IC50 (XF 498 (human CNS); [2]) of 0.245 ng/mL (≈ 0.534 nM).

Compound `COc1nc2ccccc2cc1NC(=S)N1CCN(c2cc(C)cc(C)c2)CC1` [Example 110, 1[(2-Methoxyquinolin-3-yl)aminothiocarbonyl]-4-(3,5-dimethylphenyl)piperazine] has an IC50 (SKMEL-2 (human melanoma)) of 970 ng/mL (≈ 2390 nM), an IC50 (HCT-15 (human colon)) of 690 ng/mL (≈ 1700 nM) and an IC50 [1] of 520 ng/mL (≈ 1280 nM). For the same compound, the IC50 (SKOV-3 (human ovarian)) was 1060 ng/mL (≈ 2610 nM) and the IC50 (XF 498 (human CNS); [2]) was 810 ng/mL (≈ 1990 nM).

For `COc1nc2ccccc2cc1NC(=S)N1CCN(c2cc(Cl)cc(Cl)c2)CC1` [Example 112, 1-[(2-Methoxyquinolin-3-yl)aminothiocarbonyl]-4-(3,5-dichlorophenyl)piperazine], the IC50 (SKMEL-2 (human melanoma)) was 220 ng/mL (≈ 492 nM), the IC50 (HCT-15 (human colon)) was 610 ng/mL (≈ 1360 nM) and the IC50 [1] was 560 ng/mL (≈ 1250 nM). The IC50 (SKOV-3 (human ovarian)) was 6430 ng/mL (≈ 14400 nM) and the IC50 (XF 498 (human CNS); [2]) was 2070 ng/mL (≈ 4630 nM).

Compound `COc1ccc(C)c(N2CCN(C(=O)N(Cc3ccccc3)c3cc(C)c(C)nc3OC)CC2)c1` [Example 142, 1-[N-Benzyl-N-(5,6-dimethyl-2-methoxypyridin-3-yl)aminocarbonyl]-4-(5-methoxy-2-methylphenyl)piperazine] has an IC50 (SKMEL-2 (human melanoma)) of 21 ng/mL (≈ 44.2 nM), an IC50 (HCT-15 (human colon)) of 17 ng/mL (≈ 35.8 nM) and an IC50 [1] of 15 ng/mL (≈ 31.6 nM). The IC50 (SKOV-3 (human ovarian)) was 11 ng/mL (≈ 23.2 nM) and the IC50 (XF 498 (human CNS); [2]) was 26 ng/mL (≈ 54.8 nM).

Compound `COc1cc(C)c(C)cc1NC(=O)N1CCN(c2c(C)c(C)cc(C)c2C)CC1` [Example 174, 1-[(4,5-Dimethyl-2-methoxyphenyl)aminocarbonyl]-4-(2,3,5,6-tetramethylphenyl)piperazine] has an IC50 (SKMEL-2 (human melanoma)) of 270 ng/mL (≈ 683 nM), an IC50 (HCT-15 (human colon)) of 330 ng/mL (≈ 834 nM) and an IC50 [1] of 540 ng/mL (≈ 1370 nM). For the same compound, the IC50 (SKOV-3 (human ovarian)) was 560 ng/mL (≈ 1420 nM) and the IC50 (XF 498 (human CNS); [2]) was 490 ng/mL (≈ 1240 nM).

“1-{[2-(Pyridin-2-yl)quinolin-4-yl]aminocarbonyl}-4-(3,5-dimethoxyphenyl)piperazine [Example 128]” was tested, and the ED50 (SKMEL-2 (human melanoma)) was 420 ng/mL, the ED50 (HCT-15 (human colon)) was 510 ng/mL and the ED50 [1] was 400 ng/mL. For the same compound, the ED50 (SKOV-3 (human ovarian)) was 370 ng/mL and the ED50 (XF 498 (human CNS); XF-498, 48 hours) was 440 ng/mL.

Work on `CCC(C)(O)c1cc(N(C)C(=O)N2CCN(c3cc(C)cc(C)c3)CC2)c(OC)nc1C` (stereo not drawn) [Example 156, 1-{N-[5-(1-Hydroxy-1-methylpropyl)-2-methoxy-6-methylpyridin-3-yl]-N-methylaminocarbonyl}-4-(3,5-dimethylphenyl)piperazine] yielded an IC50 (SKMEL-2 (human melanoma)) of 90 ng/mL (≈ 204 nM), an IC50 (HCT-15 (human colon)) of 70 ng/mL (≈ 159 nM) and an IC50 [1] of 60 ng/mL (≈ 136 nM). For the same compound, the IC50 (SKOV-3 (human ovarian)) was 100 ng/mL (≈ 227 nM) and the IC50 (XF 498 (human CNS); [2]) was 60 ng/mL (≈ 136 nM).

Work on `CCCc1cc(NC(=O)N2CCN(c3ccccc3OC)CC2)c(OC)nc1C` [Example 11, 1-[(2-Methoxy-6-methyl-5-propylpyridin-3-yl)aminocarbonyl]-4-(2-methoxyphenyl)piperazine] yielded an IC50 (SKMEL-2 (human melanoma)) of 620 ng/mL (≈ 1560 nM), an IC50 (HCT-15 (human colon)) of 710 ng/mL (≈ 1780 nM) and an IC50 [1] of 910 ng/mL (≈ 2280 nM). It also gave an IC50 (SKOV-3 (human ovarian)) of 560 ng/mL (≈ 1410 nM) and an IC50 (XF 498 (human CNS); [2]) of 730 ng/mL (≈ 1830 nM).
